{"source": "patent US5254533A", "about": "“Elfamycin” (Rhone-Poulenc Rorer S.A., priority 1990, dated 1993)", "key": {"[1]": {"test": "Use as a growth factor in weaned piglets (Example 5)", "assay_type": "in vivo, weaned Large-White Belgian Landrace crossed piglets", "settings": "for Weight gain / Consumption / Intermediate Weight / Initial weight / Index of consumption: 40 ppm in feed; for Initial weight: start of period 14-28 days; for Index of consumption: consumption/weight gain ratio"}, "[2]": {"test": "Use as a growth factor in piglets (Example 6)", "assay_type": "in vivo, weaned Large-White Belgian Landrace crossed piglets", "settings": "40 ppm in feed; for Final weight: control 24.7", "description": "130 weaned Large-White Belgian Landrace crossed piglets were used. The experiment began 2 weeks after weaning of the animals, i.e. at a mean age of 42 days.\nThe animals received the experimental feed ad libitum in the form of granules 2.5 mm in diameter.\nThe animals were weighed at the beginning, middle and end of the experiment. The consumptions were noted every week.\nTables 7, 8 and 9 respectively show the percentage composition and the characteristics of the diets, the percentage composition of the CMV and the percentage composition of the premixes.\nThe results are shown in Table 10 for the period 0-14 days, Table 11 for the period 14-28 days and Table 12 for the period 0-28 days."}, "[3]": {"settings": "Table 4, 0-14 days, control 15.3"}, "[4]": {"settings": "Table 5, 14-28 days, control 23.1"}, "[5]": {"settings": "Table 6, 0-28 days, control 23.1"}}, "data": [{"compound": "spiramycin embonate [reference compound]", "values": [{"measurement": "Weight gain", "setting": "[1]; 0-14 days, control 329", "result": 393, "unit": "g/day"}, {"measurement": "Consumption", "setting": "[1]; 0-14 days, control 614", "result": 668, "unit": "g/day"}, {"measurement": "Weight gain", "setting": "[1]; 0-28 days, control 445", "result": 518, "unit": "g/day"}, {"measurement": "Consumption", "setting": "[1]; 0-28 days, control 822", "result": 908, "unit": "g/day"}, {"measurement": "Weight gain", "setting": "[1]; 14-28 days, control 560", "result": 647, "unit": "g/day"}, {"measurement": "Consumption", "setting": "[1]; 14-28 days, control 1031", "result": 1147, "unit": "g/day"}, {"measurement": "Intermediate Weight", "setting": "[1]; [3]", "result": 16.3, "unit": "kg"}, {"measurement": "Intermediate Weight", "setting": "[1]; [4]", "result": 25.4, "unit": "kg"}, {"measurement": "Intermediate Weight", "setting": "[1]; [5]", "result": 25.4, "unit": "kg"}, {"measurement": "Initial weight", "setting": "[1]; control 15.3", "result": 16.3, "unit": "kg"}, {"measurement": "Index of consumption", "setting": "[1]; 0-14 days, control 1.88", "result": 1.72}, {"measurement": "Index of consumption", "setting": "[1]; 0-28 days, control 1.85", "result": 1.75}, {"measurement": "Index of consumption", "setting": "[1]; 14-28 days, control 1.86", "result": 1.79}, {"measurement": "effect on consumption (in words)", "setting": "[1]; first period 0-14 days", "result": "increase in consumption"}, {"measurement": "effect on consumption (in words)", "setting": "[1]; overall period 0-28 days", "result": "significantly increased"}, {"measurement": "effect on growth (in words)", "setting": "[1]; overall period 0-28 days, relative to basic diet", "result": "significantly increased"}, {"measurement": "effect on growth (in words)", "setting": "[1]; second period 14-28 days", "result": "significantly improved"}, {"measurement": "Index of consumption", "setting": "[2]; 0-14 days, control 1.76", "result": 1.70}, {"measurement": "Weight gain", "setting": "[2]; 0-14 days, control 368", "result": 423, "unit": "g/day"}, {"measurement": "Consumption", "setting": "[2]; 0-14 days, control 645", "result": 715, "unit": "g/day"}, {"measurement": "Index of consumption", "setting": "[2]; 0-28 days, control 1.80", "result": 1.73}, {"measurement": "Weight gain", "setting": "[2]; 0-28 days, control 474", "result": 532, "unit": "g/day"}, {"measurement": "Consumption", "setting": "[2]; 0-28 days, control 852", "result": 923, "unit": "g/day"}, {"measurement": "Index of consumption", "setting": "[2]; 14-28 days, control 1.84", "result": 1.77}, {"measurement": "Weight gain", "setting": "[2]; 14-28 days, control 579", "result": 640, "unit": "g/day"}, {"measurement": "Consumption", "setting": "[2]; 14-28 days, control 1059", "result": 1130, "unit": "g/day"}, {"measurement": "Final weight", "setting": "[2]; Table 11, 14-28 days", "result": 26.3, "unit": "kg"}, {"measurement": "Final weight", "setting": "[2]; Table 12, 0-28 days", "result": 26.3, "unit": "kg"}]}, {"compound": "CC[C@H]1OC(=O)C[C@@H](O)[C@H](C)[C@@H](O[C@@H]2O[C@H](C)[C@@H](O[C@H]3C[C@@](C)(O)[C@@H](O)[C@H](C)O3)[C@H](N(C)C)[C@H]2O)[C@@H](CC=O)C[C@@H](C)C(=O)/C=C/C(C)=C/[C@@H]1CO[C@@H]1O[C@H](C)[C@@H](O)[C@@H](OC)[C@H]1OC", "note": "[tylosin, reference compound]", "values": [{"measurement": "Weight gain", "setting": "[1]; 0-14 days, control 329", "result": 351, "unit": "g/day"}, {"measurement": "Consumption", "setting": "[1]; 0-14 days, control 614", "result": 619, "unit": "g/day"}, {"measurement": "Weight gain", "setting": "[1]; 0-28 days, control 445", "result": 470, "unit": "g/day"}, {"measurement": "Consumption", "setting": "[1]; 0-28 days, control 822", "result": 826, "unit": "g/day"}, {"measurement": "Weight gain", "setting": "[1]; 14-28 days, control 560", "result": 588, "unit": "g/day"}, {"measurement": "Consumption", "setting": "[1]; 14-28 days, control 1031", "result": 1033, "unit": "g/day"}, {"measurement": "Intermediate Weight", "setting": "[1]; [3]", "result": 15.6, "unit": "kg"}, {"measurement": "Intermediate Weight", "setting": "[1]; [4]", "result": 23.8, "unit": "kg"}, {"measurement": "Intermediate Weight", "setting": "[1]; [5]", "result": 23.8, "unit": "kg"}, {"measurement": "Initial weight", "setting": "[1]; control 15.3", "result": 15.6, "unit": "kg"}, {"measurement": "Index of consumption", "setting": "[1]; 0-14 days, control 1.88", "result": 1.79}, {"measurement": "Index of consumption", "setting": "[1]; 0-28 days, control 1.85", "result": 1.76}, {"measurement": "Index of consumption", "setting": "[1]; 14-28 days, control 1.86", "result": 1.76}]}]}
